The values that follow come from patent US10744179B2, “Method for treatment of inflammatory skin disorders with inhibitors of IL-36 proteolytic processing” (THE PROVOST, FELLOWS, FOUNDATION SCHOLARS, & THE OTHER …, priority 2014, dated 2020).

The subject of experiment [1] is IL-36β activation by activated neutrophil degranulates. As to the kind of experiment: IL-36β activation by PMA-activated neutrophil degranulates, HeLa IL-36R bioassay (cytokine ELISA). Conditions: HeLa IL36R; for inhibition of IL-36β activation by neutrophil degranulates (peptide panel): FIG. 6, 29, 30, degranulates pre-incubated 30 min on ice with peptide titration (20-0.625 μM), then IL36β 2 h at 37°, IL-6 ELISA after 24 h; for inhibition of the activation of IL-36β by activated neutrophil degranulates: FIG. 5, IL-36β pre-incubated 2 h at 37° with degranulates ± PMSF (1 mM) or Cathepsin G inhibitor 1 (10 μM), cytokine ELISA after 24 h. In general terms: An ELISA detects its analyte on a solid surface through an enzyme-linked reagent.
Experimental: FIG. 29 are graphs showing Neutrophils degranulates pre-incubated for 30 min on ice in the presence or absence of a titration of peptide (20, 10, 5, 2.5, 1.25, 0.625 μM) followed by addition of IL36β for 2 h at 37°. HeLa^IL36R were stimulated for 24 h. IL-6 cytokine concentrations in culture supernatants were determined by ELISA. Note: Elast I-IV serves as negative controls for IL-36β assay.
Primary neutrophils were purified from donor human blood using the plasma-Percoll gradient method. Purity of cell preparations (>90%) was determined by Hematoxylin and Eosin staining of cytospins. To prepare degranulates, neutrophils (10^7 per treatment) were stimulated in the presence or absence of 50 nM PMA in HBSS/0.25% BSA for 1-3 h at 37° C. in a humidified atmosphere with 5% CO2. Supernatants were harvested and clarified by centrifugation. Degranulate aliquots were stored at −80°.
Reactions (40-100 μl final volume) were carried out in protease reaction buffer (50 mM Hepes, pH 7.4/75 mM NaCl/0.1% CHAPS) for 2 h at 37°.
Cytokines and chemokines were measured from cell culture supernatants using specific ELISA kits obtained from R&D systems (human IL-6, IL-8, CXCL1, MCP-1, IL-17C). Each assay was repeated a minimum of three times and all cytokine assays were carried out using triplicate samples from each culture.

The test system of experiment [2] is IL-36α activation by activated neutrophil degranulates. The experiment is described as follows: IL-36α activation by PMA-activated neutrophil degranulates, HeLa IL-36R bioassay (cytokine ELISA). The experiment is classed as cell-based, human. To be noted: FIG. 5; IL-36α pre-incubated 2 h at 37° with degranulates ± PMSF (1 mM) or Cathepsin G inhibitor 1 (10 μM); HeLa IL36R, cytokine ELISA after 24 h.

The test system of experiment [3] is IL-36α activation by psoriatic skin eluates. The experiment is described as follows: IL-36α activation by psoriatic skin eluates, HeLa IL-36R bioassay (IL-8 ELISA). The experiment is classed as cell-based, human. To be noted: FIG. 40c, IL-36α 500 pM pre-incubated 2 h at 37° with eluates ± cathepsin G inhibitor 1 (10 μM). As to the method:
(§1) Fixomull (2 cm×2 cm) adhesive tape strips were applied to a healthy or psoriatic skin, under firm pressure for 10 seconds. […] Sample eluates were stored at −80° C. Enzymatic assays and bioassays were setup using control and psoriatic eluates as described above.

Experiment [4] relates to IL-36β activation by psoriatic skin eluates. The experiment is described as follows: IL-36β activation by psoriatic skin eluates, HeLa IL-36R bioassay (IL-8 ELISA). It counts as cell-based, human. To be noted: FIG. 40c, IL-36β 500 pM pre-incubated 2 h at 37° with eluates ± cathepsin G inhibitor 1 (10 μM). How it is done: as §1

No end group written: not given here. *: point of attachment. CH2Cl = ClC*

Regarding “Glu-Pro-Phe-CMK (Glu-Pro-Phe-CH2Cl) [EPF-CMK]”, the “inhibition of IL-36β activation by neutrophil degranulates (peptide panel)” value (from here on “inhibition of IL-36β activation”) in experiment [1] is given as “most potent inhibitors”. With “Ala-Phe-Leu-Phe-CMK (AFLF; not fully specified; C-terminal chloromethyl ketone; N-terminal Z; printed: Ala-Phe-Leu-Phe-) [AFLF-CMK]”, the “inhibition of IL-36β activation” value in experiment [1] is reported as “most potent inhibitors”. `O=S(=O)(F)Cc1ccccc1` [PMSF, phenylmethanesulfonylfluoride]: the “inhibition of the activation of IL-36α by activated neutrophil degranulates” value in experiment [2] is “robustly inhibited”. Also, the “inhibition of the activation of IL-36β by activated neutrophil degranulates” value in experiment [1] was “robustly inhibited”. Regarding “FLF-CMK: Cathepsin G-inhibitory peptide Phe-Leu-Phe with chloromethyl ketone (CMK) at the C-terminus (Phe-Leu-Phe-CH2Cl)”, the “inhibition of IL-36β activation” value in experiment [1] is “most potent inhibitors”. Consider `CN(C(=O)c1cc2ccccc2cc1C(=O)C(c1cccc2ccccc12)P(=O)(O)O)C1CCN(C(=O)c2ccccc2)CC1` (stereo not drawn) [Cathepsin G Inhibitor I], for which the “inhibition of the activation of IL-36α by activated neutrophil degranulates” value in experiment [2] is “robustly inhibited”. In addition, the “attenuation of IL-36α activation by psoriatic skin eluates” value in experiment [3] is recorded as “attenuated”. Besides, the “attenuation of IL-36β activation by psoriatic skin eluates” value in experiment [4] was “attenuated”. In addition, the “inhibition of the activation of IL-36β by activated neutrophil degranulates” value in experiment [1] is on record as “robustly inhibited”.
